Test system: HUVECs
Experiment: Cord formation assay, HUVEC-eGFP co-cultured with human dermal fibroblasts
Assay type: cell-based
Settings: VEGF 15 ng/mL, 6 days; 0.5 µM (Sunitinib 1 μM)
Method: The cord formation assay was performed according to the IncuCyte Angiogenesis PrimeKit Assay protocol (Cell Player Angiogenesis PrimeKit, Essen BioScience). In brief, GFP labeled HUVEC cells and human dermal fibroblasts were mixed in a 1:20 ratio and seeded per well in a 96-well plate (3150 cells in total). Thereafter, the cells were exposed to VEGF alone or in combination with the compounds (at indicated concentrations) in a complete assay medium. Pictures were captured every 6 h for up to 9 days To monitor the cord formation. The medium was refreshed every 2 or 3 days. Cords formation was visualized by the GFP fluorescence, and cord length was quantified with the instrument’s software. All the experiments were repeated at least three times, and representative experiments are shown.

SMILES: CCN(CC)CCNC(=O)c1c(C)[nH]c(/C=C2\C(=O)Nc3ccc(F)cc32)c1C [Sunitinib, reference compound]
- effect on VEGF-induced EC cord formation: strongly suppressed

— article PMC8231556, “Inhibiting Endothelial Cell Function in Normal and Tumor Angiogenesis Using BMP Type I Receptor Macrocyclic Kinase Inhibitors” (Cancers, 2021)
